{
  "source": "patent US20230235327A1",
  "about": "“A DBAIT MOLECULE IN COMBINATION WITH KRAS INHIBITOR FOR THE TREATMENT OF CANCER” (ONXEO, priority 2020, published 2023)",
  "type_in_all_cases": "cell-based",
  "key": {"NCI-H23 cells [1]": {"tested_on": "NCI-H23 cells", "assay": "Selection of resistant populations, cell growth by cell counting under continuous treatment", "method": "Cell cultures were performed with non-small cell lung (NSCLC) cancer cell line NCI-H23, a KRAS^G12C mutant cell line (heterozygous mutation). The NCI-H23 cell line was purchased from the ATCC. Cells were grown according to the supplier's instructions and maintained at 37° C. in a humidified atmosphere at 5% CO2. Medium was renewed twice a week and cells were passed when the confluence reached 70-80% depending on cell lines. Each cell line was generally kept in passage for no more than 2 months.\n(§1) At least 3 to 6 independent populations were treated for each condition. Drugs were renewed twice a week to maintain a high pressure of resistance selection. Cells were harvested, washed and counted approximately ones a week after staining with 0.4% trypan blue (Sigma Aldrich, Saint-Louis, USA) using an automated cell counter (EVE™-Nanoentek).\nCells were seeded in T75 flasks with 5.10^5 cells per flask and incubated 24 hours at 37° C. before addition of AMG-510 (20 μM) with or without AsiDNA (doses ranging from 100 nM to 2500 nM). AsiDNA was added either concomitantly and continuously with the KRAS^G12C inhibitor or two weeks from the AMG-510 treatment start. At least 3 to 6 independent populations were treated for each condition. Drugs were renewed twice a week to maintain a high pressure of resistance selection. Cells were harvested, washed and counted approximately ones a week after staining with 0.4% trypan blue (Sigma Aldrich, Saint-Louis, USA) using an automated cell counter (EVE™-Nanoentek)."}, "NCI-H23 cells [2]": {"tested_on": "NCI-H23 cells", "assay": "βgal staining (senescence detection)", "method": "Slow cycling/senescent drug-tolerant cells were identified using Senescence detection kit according to the manufacturer instructions (Abcam; ab65351). Briefly, cells were seeded in 12-well culture plates and incubated overnight at 37° C. Cells were then washed twice with PBS, fixed during 10 minutes with 0.5 ml of Fixative solution at room temperature, washed twice with PBS and then stained using 0.5 ml of the Staining solution mix overnight at 37° C. Cells are then analyzed under microscope for development of blue color."}, "NCI-H23 cells [3]": {"tested_on": "NCI-H23 cells", "assay": "Flow cytometry of p16, p21, pPERK and transferrin receptor", "method": "NCI-H23 were seeded in T25 flasks at 4.105 cells per flask and then treated for 24 h with AsiDNA™ at 100 nM or 5 μM for 24 hours. For intracellular staining (pPERK and CDK p16/CDK p21, mTOR, Bcl-2 staining), cells were washed, then fixed in PBS/70% Ethanol during at least 1 hour at 4° C. Cells were then washed, permeabilized with PBS/0.2% TritonX-100 solution at RT for 30 min, and saturated with PBS/2% Bovine Serum Albumin (BSA) solution at RT for 10 min. Then, cells were washed with PBS and incubated 1 hour with respectively, FITC-conjugated anti pPERK (Biorbyt, UK, 1:120), Alexa647-conjugated anti-CDK p16 (Cell signaling, Danvers Mass., USA, 1:50), Alexa488-conjugated anti-CDK p21 (Cell signaling, Danvers Mass., USA, 1:50), Alexa488-conjugated anti-mTOR (Cell signaling, Danvers Mass., USA, 1:50), Alexa647-conjugated anti-Bcl-2 (Cell signaling, Danvers Mass., USA, 1:50) before flow cytometry analysis (Guava EasyCyte 12H, Luminex, Germany). For cell-surface receptors staining with a PE-conjugated anti-transferrin receptor antibody (Thermofisher, Waltham Mass., USA, 1:20). Stained cells were then washed with PBS and fluorescence intensities were acquired with a Guava EasyCyte 12H flow cytometer (Luminex, Germany). Data were analyzed using FlowJo software (Tree Star, CA, USA), cells were harvested and washed directly after treatment end, and then incubated for 1 hour at 4° C."}, "MIA PaCa-2 cells": {"tested_on": "MIA PaCa-2 cells", "assay": "Selection of resistant populations, cell survival by cell counting", "conditions": "MIA PaCa-2, continuous 1 μM", "method": "Cells were grown according to the supplier's instructions and maintained at 37° C. in a humidified atmosphere at 5% CO2. Medium was renewed twice a week and cells were passed when the confluence reached 70-80% depending on cell lines. Each cell line was generally kept in passage for no more than 2 months.\nas §1"}, "[4]": {"conditions": "AMG-510 (20 μM) induced senescent cells vs parental cell line"}, "[5]": {"conditions": "NCI-H23 residual cells under treatment vs parental"}},
  "data": [
    {"smiles": "C=CC(=O)N1CCN(c2nc(=O)n(-c3c(C)ccnc3C(C)C)c3nc(-c4c(O)cccc4F)c(F)cc23)[C@@H](C)C1", "note": "[AMG-510]", "values": [
      {"measurement": "resistance acquired under continuous treatment", "setting": "NCI-H23 cells [1]; NCI-H23, AMG-510 20 μM or MRTX-849 1 μM alone", "value": "de-novo resistance"},
      {"measurement": "time from which cells restarted to divide and entered a proliferative state", "setting": "NCI-H23 cells [1]; NCI-H23, continuous AMG-510 20 μM alone", "value": "two to three"},
      {"measurement": "initial sensitivity of cells to the inhibitor", "setting": "NCI-H23 cells [1]; NCI-H23, continuous high dose/IC90, two first weeks of treatment", "value": "very sensitive"},
      {"measurement": "β-gal positive staining, cells in a senescent state", "setting": "NCI-H23 cells [2]; NCI-H23, Day 17 of treatment", "value": 50, "unit": "%"},
      {"measurement": "β-gal positive staining, cells in a senescent state", "setting": "NCI-H23 cells [2]; NCI-H23, Day 27 of treatment", "value": 10, "unit": "%"},
      {"measurement": "β-gal positive staining, cells in a senescent state", "setting": "NCI-H23 cells [2]; NCI-H23, day 10 of treatment", "value": 90, "unit": "%"},
      {"measurement": "pPERK level", "setting": "NCI-H23 cells [3]; [4]", "value": "increase"},
      {"measurement": "transferrin receptor level", "setting": "NCI-H23 cells [3]; [4]", "value": "increase"},
      {"measurement": "p16 expression", "setting": "NCI-H23 cells [3]; [5]", "value": "increases"},
      {"measurement": "p21 expression", "setting": "NCI-H23 cells [3]; [5]", "value": "increases"},
      {"measurement": "time to emergence of acquired resistance after treatment start", "setting": "MIA PaCa-2 cells", "value": "~1", "unit": "month"}
    ]}
  ]
}
